Where two headings read alike, the source gives them in different places.
How the values were obtained:
[1] = tested on: breast cancer, advanced ovarian cancer; assay: Clinical response to single agent chemotherapy in patients (breast neoadjuvant docetaxel; ovarian salvage docetaxel, topotecan, taxol; adriamycin treated patients); format: in vivo, human; settings: Ovarian tumor data set; responders/patients
Excerpt: The development of a gene expression signature capable of predicting in vitro docetaxel sensitivity provides a tool that might be useful in predicting response to the drug in patients. We made use of published studies with clinical and genomic data that linked gene expression data with clinical response to docetaxel in a breast cancer neoadjuvant study^50 (FIG. 1D) to test the capacity of the in vitro docetaxel sensitivity predictor to accurately identify those patients that responded to docetaxel. […] We extended this further by predicting the response to docetaxel as salvage therapy for ovarian cancer.
Given the ability of the in vitro developed gene expression profiles to predict response to docetaxel in the clinical samples, we extended this approach to test the ability of additional signatures to predict response to commonly used salvage therapies for ovarian cancer and an independent data set of samples from adriamycin treated patients (Evans W, GSE650, GSE651). […] In each case, the positive and negative predictive values confirm the validity and clinical utility of the approach (Table 16).
Full details of the methods used for RNA extraction and development of gene expression signatures representing deregulation of oncogenic pathways in the tumor samples were recently described.^36 Response to therapy was evaluated using standard criteria for patients with measurable disease, based upon WHO guidelines.^28

[2] = tested on: breast cancer, advanced ovarian cancer; settings: responders/patients, cited from earlier work
[3] = tested on: NCI-60 cell line panel; design: key: Sensitive; Resistant; settings: cited from earlier work

SMILES: CC[C@@]1(O)C(=O)OCc2c1cc1n(c2=O)Cc2cc3c(CN(C)C)c(O)ccc3nc2-1 [topotecan]
- Actual Overall Response [1]: 20/48 (41.6%)

SMILES: CC(=O)O[C@H]1C(=O)[C@@]2(C)[C@H]([C@H](OC(=O)c3ccccc3)[C@]3(O)C[C@H](OC(=O)[C@H](O)[C@@H](NC(=O)c4ccccc4)c4ccccc4)C(C)=C1C3(C)C)[C@]1(OC(C)=O)CO[C@@H]1C[C@@H]2O [taxol, paclitaxel]
- Actual Overall Response [1]: 20/35 (57.1%)

SMILES: COc1cccc2c1C(=O)c1c(O)c3c(c(O)c1C2=O)C[C@@](O)(C(=O)CO)C[C@@H]3O[C@H]1C[C@H](N)[C@H](O)[C@H](C)O1 [adriamycin]
- Actual Overall Response ([2]; Evans et al. patient data set): 24/122 (19.6%)

SMILES: CC(=O)O[C@@]12CO[C@@H]1C[C@H](O)[C@@]1(C)C(=O)[C@H](O)C3=C(C)[C@@H](OC(=O)[C@H](O)[C@@H](NC(=O)OC(C)(C)C)c4ccccc4)C[C@@](O)([C@@H](OC(=O)c4ccccc4)[C@H]21)C3(C)C [docetaxel]
- Actual Overall Response [1]: 7/14 (50%)
- Actual Overall Response ([2]; Breast Tumor Data, neoadjuvant (Chang et al.)): 13/24 (54.1%)

SMILES: O=c1[nH]cc(F)c(=O)[nH]1 [5-FU, 5-fluorouracil]
- Resistant or Sensitive (Res or Sen) ([3]; A498, Renal): Sen
- Resistant or Sensitive (Res or Sen) ([3]; COLO 205, Colon): Sen
- Resistant or Sensitive (Res or Sen) ([3]; EKVX, Non-Small Cell Lung): Res
- Resistant or Sensitive (Res or Sen) ([3]; HCT-116, Colon): Sen
- Resistant or Sensitive (Res or Sen) ([3]; LOX IMVI, Melanoma): Sen
- Resistant or Sensitive (Res or Sen) ([3]; M14, Melanoma): Res
- Resistant or Sensitive (Res or Sen) ([3]; MCF7, Breast): Sen
- Resistant or Sensitive (Res or Sen) ([3]; MDA-MB-435, Melanoma): Res
- Resistant or Sensitive (Res or Sen) ([3]; NCI-H460, Non-Small Cell Lung): Sen
- Resistant or Sensitive (Res or Sen) ([3]; NCI/ADR-RES, Ovarian): Res
- Resistant or Sensitive (Res or Sen) ([3]; OVCAR-8, Ovarian): Res
- Resistant or Sensitive (Res or Sen) ([3]; SK-MEL-5, Melanoma): Sen
- Resistant or Sensitive (Res or Sen) ([3]; SN12C, Renal): Res
- Resistant or Sensitive (Res or Sen) ([3]; SW-620, Colon): Res
- Resistant or Sensitive (Res or Sen) ([3]; UO-31, Renal): Sen
